Laboratory results as given in paper PMC10571743, “Molecular Cloning, Tissue Distribution, and Pharmacological Characterization of GPR84 in Grass Carp (Ctenopharyngodon Idella)” (Animals : an Open Access Journal from MDPI, 2023).

Legend:
ciGPR84 [1] = biological target: T1, ciGPR84 (Ctenopharyngodon idella, UniProt A0A8K1PH93); test: pGL4.29 (CRE) luciferase reporter assay, inhibition of forskolin-induced cAMP signaling in HEK293T cells transfected with ciGPR84; assay type: cell-based, grass carp (Ctenopharyngodon idella); settings: HEK293T co-transfected with pciGPR84 and pGL4.29, 5 μM forskolin, 6 h treatment; for IC50: read-out: IC50 (half-maximal inhibitory concentration) on cAMP through ciGPR84
Protocol: (§1) Human embryonic kidney cells HEK293T obtained from Beyotime Biotechnology (Shanghai, China) were cultured with Dulbecco’s Modified Eagle Medium (DMEM) containing a 10% fetal bovine serum in an incubator (37 °C and 5% CO2 humidified atmosphere). The cells were plated into 24-well plates and cultured for 24 h before assays. The Countess 3 cell counter (Invitrogen, Waltham, MA, USA) was used for cell counting.
(§2) The functionality of ciGPR84 was assessed using our established method. Specifically, the coding sequence (CDS) of ciGPR84 was subcloned into the pcDNA3.1 (+) vector (Invitrogen, Carlsbad, CA, USA), resulting in the construction of pcDNA3.1-ciGPR84 (pciGPR84). HEK293T cells were co-transfected with pciGPR84 (or pcDNA3.1 empty vector), two luciferase reporter vectors (pGL4.29 and pGL4.33) containing a cAMP response element (CRE) and serum response element (SRE), respectively, and pEGFP-N1 (as an internal control for transfection normalization) in a mixture with polyethyleneimine (PEI) transfection reagent (Fusheng Biotechnology, Shanghai, China). The cells were then incubated in the original medium for 24 h, transferred to a 48-well plate, and grown for an additional 24 h to reach a cell density of 2 × 10^5 cells per well. […] It is important to note that due to the anticipated inhibitory effect of MCFA on the intracellular cAMP, 5 μM forskolin was added to all wells transfected with pGL4.29 to pre-activate the cellular adenylyl cyclase.
(§3) After the treatment, cells were lysed with 1 × passive lysis buffer (Beyotime Biotechnology, Shanghai, China), and a luciferase substrate was added to initiate a glow-generating reaction. The luminescence signals were measured using a Tecan F200 (Tecan, Männedorf, Switzerland) microplate reader to determine the relative luciferase activity in each well. Three independent experiments were performed for each agonist concentration (n = 3), and the data were presented as a mean ± SEM.
(§4) A data analysis was performed using GraphPad Prism 7 software (GraphPad Software, San Diego, CA, USA).

ciGPR84 [2] = biological target: T1, ciGPR84; test: pGL4.33 (SRE) luciferase reporter assay, activation of ERK signaling in HEK293T cells transfected with ciGPR84; assay type: cell-based, grass carp (Ctenopharyngodon idella); settings: HEK293T co-transfected with ciGPR84 and pGL4.33 (SRE-luciferase), 6 h treatment; for EC50: read-out: EC50 for activation of ERK signaling through ciGPR84
Protocol: as §1, §2, §3, §4

mouse GPR84 = test system: mouse GPR84; parameters: method as in PMID 16966319; settings: cited from earlier work

T1 sequence (A0A8K1PH93 entry or part of it): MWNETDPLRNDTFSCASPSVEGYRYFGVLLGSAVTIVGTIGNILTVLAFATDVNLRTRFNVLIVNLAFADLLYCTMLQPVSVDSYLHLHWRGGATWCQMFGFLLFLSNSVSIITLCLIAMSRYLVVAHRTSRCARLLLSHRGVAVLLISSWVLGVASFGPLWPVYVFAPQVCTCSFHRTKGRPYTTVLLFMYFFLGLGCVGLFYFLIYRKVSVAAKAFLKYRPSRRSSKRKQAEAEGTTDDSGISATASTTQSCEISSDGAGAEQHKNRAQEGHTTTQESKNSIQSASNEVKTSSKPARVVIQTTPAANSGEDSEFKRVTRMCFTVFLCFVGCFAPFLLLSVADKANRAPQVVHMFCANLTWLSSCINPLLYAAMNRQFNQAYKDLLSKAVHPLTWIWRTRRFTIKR

| activation of ERK signaling through ciGPR84 (ciGPR84 [2]; DIM 10^−8 to 10^−3) | Compound | inhibition of cAMP generation through ciGPR84 (ciGPR84 [1]; DIM 10^−8 to 10^−3) | EC50 (mouse GPR84) [µM] | IC50 (ciGPR84 [1]) [µM] | EC50 (ciGPR84 [2]) [mM] |
| --- | --- | --- | --- | --- | --- |
| did not activate the ERK signaling | c1ccc2c(Cc3c[nH]c4ccccc34)c[nH]c2c1 [DIM, diindolylmethane] | did not lead to the inhibition of cAMP generation | – | – | – |
| – | CCCCCCCCCC(=O)O [capric acid] | – | 4 | – | – |
| – | CCCCCCCCCCCC(=O)O [lauric acid] | – | 9 | 301 | 4.25 |
| – | CCCCCCCCC(=O)O [nonanoic acid] | – | 52 | – | – |
| – | CCCCCCCCCCC(=O)O [undecanoic acid] | – | – | 1490 | 13.8 |
